We go through 15 substances from publication PMC9481563, “Structural insights into the pSer/pThr dependent regulation of the SHP2 tyrosine phosphatase in insulin and CD28 signaling” (Nature Communications, 2022).

In one assay the test system is SHP2. As to conditions: SHP2 substrate sites, cutoff > 0.5 for genuine substrates; ref [1] Barr AJ et al., Cell 136, 352-63 (2009); cited from earlier work. An excerpt: page 80: Supplementary tables Peptide name Sequence Activity (Arb. u.) CADH2-Y785 […] 0.7 ERBB2-Y1248 […]- 0.6 PGFRB-Y751 […] 1 LCK-Y394 […] 1.3 CSK-Y184 […] 1.5 GHR-Y487 […] 0.8 TIE2-Y816 […] 1.2 ERBB2-Y1139 […] 1.2 WASP-Y290 […] 0.6 PAXI-Y118 […] 0.8 Supplementary table 1. SHP2 substrate sites derived from a large-scale comparative study with quantitative results. A cutoff of > 0.5 was applied to separate genuine SHP2 substrates from spurious signals. ...

Assay [1] relates to tyrosine kinase domain of the human insulin receptor (InsR). In words: Capillary electrophoresis phosphorylation assay, InsR kinase domain. The class given is biochemical. As to conditions: CE assay, effect of pSer vs non-phosphorylated peptide of the pair; 1 mM ATP, pH 7.5; n = 1. As for the experimental part:
Ni-NTA purified stocks were subjected to anion exchange chromatography using an Äkta explorer instrument (Amersham Pharmacia) and Resource Q columns (GE healthcare). Prior to anion exchange, all proteins were dialyzed overnight against a low salt buffer (10–50 mM NaCl, 20 mM TRIS [pH = 8.0], 10% glycerol and 1 mM 1,4-dithiothreitol [DTT]) using a Servapor MWCO 12,000–14,000 membrane. Proteins loaded onto the column were eluted using a salt gradient up to 1 M NaCl over 30 min. Purity of proteins was assessed by SDS-PAGE and final samples were typically found to have >95% purity (see Supplementary figs. 85, 86). The protein aliquots were snap-frozen in liquid nitrogen and stored in −80 °C. […]
Phosphorylation and dephosphorylation assays with peptides were performed using capillary electrophoresis on an Agilent Capillary Electrophoresis ^3DCE system (Agilent Technologies, Waldbronn, Germany) applying DB-WAX coated silica capillary having a 33.5 cm total and 25 cm effective length with 50 μm I.D. (Agilent Technologies, Santa Clara, CA, USA). On-line absorption at 200 nm was monitored by DAD UV-Vis detector. […] Kinetic curves in the article are always presented with exponential fits (that approximate the integrated Michaelis-Menten functions decently on the measured time intervals).

Assay [2] concerns HEK293T cells co-transfected with IRS1-FLAG (wild-type or Ser/Ala mutant) and constitutive active SHP2. In words: Cell-based IRS1 Y612 phosphorylation assay (western blot) after insulin. Further details: species or system human. Here is the method: HEK293T cells (#CRL-3216 ATCC, Manassas, VA USA) were maintained in DMEM (#41966029 Gibco, Waltham MA USA) supplemented with 10% FBS (#10500064 Gibco), 1% penicillin-streptomycin (#P0781-100ML Sigma, St. Louis MI USA) and 0.1% Amphotericin B (#15290026 Gibco). Cells were plated into 24-well plates in 7.5 × 10^4/well concentration and co-transfected with wild-type or Ser/Ala mutant pcDNA3.1-IRS1-FLAG and constitutive active pcDNA3.1-SHP2 plasmids using Lipofectamine 3000 (#L3000008 Invitrogen) reagent following the manufacturer’s instruction. After overnight serum-starvation cells were treated with 1 µM insulin (I9278, Sigma) for 0–30 min and harvested in Western sample buffer. Samples were run in 4–20% gradient gel (#4561096 BioRad, Hercules, CA USA) and transferred to nitrocellulose membrane using Transblot-Turbo System (#1704271 BioRad). Membranes were incubated in 1:5000 M2 anti-FLAG (#1804-200UG Sigma) and 1:1000 anti-pY612-IRS1 (#44-816 G Invitrogen) overnight and labelled with 1:10000 IRDye anti- mouse 680 (#92668070 LICOR Biosciences, Lincoln, NE USA) and 1:10.000 IRDye anti- rabbit 800 […] (#92632211 LICOR Biosciences) secondary antibodies. Membranes were scanned using the Odyssey CLx Fluorescence Imaging System (LICOR Biosciences, v5.2.5.).
Background: A western blot detects proteins with antibodies after separation by electrophoresis.

For assay [3], the system named is wild-type SHP2 catalytic domain. In words: Capillary electrophoresis dephosphorylation assay, SHP2 catalytic domain. As to conditions: for % nominal product: WT-SHP2 catalytic domain. The format is biochemical, human. As for the experimental part: Phosphorylation and dephosphorylation assays with peptides were performed using capillary electrophoresis on an Agilent Capillary Electrophoresis ^3DCE system (Agilent Technologies, Waldbronn, Germany) applying DB-WAX coated silica capillary having a 33.5 cm total and 25 cm effective length with 50 μm I.D. (Agilent Technologies, Santa Clara, CA, USA). On-line absorption at 200 nm was monitored by DAD UV-Vis detector. The capillary was thermostated at 25 °C. Before measurements the capillary was rinsed subsequently with distilled water for 15 min and between measurements with BGE (100 mM trimethylamine-phosphate buffer (pH 2.5)) for 3 min. Samples were injected by 5 × 103 Pa pressure for 6 s. Runs were performed in the positive-polarity mode with 20 kV. […] The reaction was initialized by addition of the phosphatase enzyme. Kinase reactions were realized with the following buffer: 20 mM potassium phosphate (monobasic), 15 mM sodium phosphate (dibasic), 100 mM NaCl, 5 mM MgCl2, 5% glycerol, 0,05% non-ionic detergent IGEPAL, pH 7.5; reaction was started with the addition of 1 mM of ATP. Sampling from reactions was done in real time, except when conditions required pre-concentration of samples (with PTP1B only). In the latter case, reactions were run in 15 ml Falcon tubes, using an NH4HCO3-based buffer (100 mM end concentration), with 5 nM enzyme. After heat inactivation (10 min at 75 °C), the latter samples were lyophilized until dry and reconstituted in 40 ul distilled H2O. Kinetic curves in the article are always presented with exponential fits (that approximate the integrated Michaelis-Menten functions decently on the measured time intervals).

The mark [4] stands for this setting: 19 min, average of 3 replicates.
Where [5] appears, read: 35 min, average of 3 replicates.

“Also recorded” adds a separate entry of the source.

With “KNNPDPTIYPVLDWNDI [TIE2-Y816, SHP2 substrate site peptide from a large-scale comparative study]”, in the assay with SHP2, the “Activity (Arb. u.)” value is 1.2 Arb. u.
“ARLIEDNEYTAREGAKF [LCK-Y394, SHP2 substrate site peptide from a large-scale comparative study]”: the “Activity (Arb. u.)” value in the assay with SHP2 is given as 1.3 Arb. u.
Regarding “HPPEPK{pSer}PGEYVNIEFGS [0pRev-IRS1, IRS1 Y896 motif peptide with −4 pSer only]”, the “tyrosine phosphorylation by InsR kinase (in words)” value in assay [1] was “altered kinetics to a very limited degree; also recorded: no major differences”.
“GGGEEDQDYDLSQLQQP [CADH2-Y785, SHP2 substrate site peptide from a large-scale comparative study]”: in the assay on SHP2, the “Activity (Arb. u.)” value was 0.7 Arb. u.
For the substance “MSKDESVDYVPMLDMKG [PGFRB-Y751, SHP2 substrate site peptide from a large-scale comparative study]”, the “Activity (Arb. u.)” value in the assay on SHP2 was 1 Arb. u.
Consider wt, for which the “pY612-IRS1/FLAG ratio, Median value” in assay [2] (Supp Fig 13, baseline analysis, median of 12) came to 0.0394; in assay [2] (Supp Fig 13, time course analysis, 0 min, median of 10), 0.0379; in assay [2] (Supp Fig 13, time course analysis, 15 min, median of 10), 0.4550; in assay [2] (Supp Fig 14, baseline analysis, median of 3), 0.0140.
For “HPPEPK{pSer}PGE{pTyr}VNIEFGS [ppRev-IRS1, IRS1 Y896 peptide with pSer in addition to pTyr, for dephosphorylation assays]”, the “tyrosine dephosphorylation rate (in words)” value in assay [3] (CE assay, substrate 50 μM, enzyme 25 nM, 50 mM TRIS, 150 mM NaCl, 1 mM EDTA, 2 mM DTT, IGEPAL 0.1%, pH 7.4) is recorded as “superior reaction rates; also recorded: greatly enhanced”. Moreover, the “% nominal product” value in assay [3] (setting [4]) is reported as 47.8%; in assay [3] (19 min, replicate 01), 47.7%; in assay [3] (19 min, replicate 02) it was 59.3%; in assay [3] (19 min, replicate 03), 36.5%; in assay [3] (setting [5]), 52.8%; in assay [3] (35 min, replicate 01), 58.7%. The “% nominal product” value in assay [3] (35 min, replicate 02) amounted to 60.4%; in assay [3] (35 min, replicate 03) it was 39.2%; in assay [3] (51 min, average of 3 replicates), 55.2%; in assay [3] (51 min, replicate 01), 60.3%; in assay [3] (51 min, replicate 02), 61.2%; in assay [3] (51 min, replicate 03), 44.1%.
“TVAAQDEFYRSGWALNM [CSK-Y184, SHP2 substrate site peptide from a large-scale comparative study]”: in the assay with SHP2, the “Activity (Arb. u.)” value was 1.5 Arb. u.
For the substance “DAETSKLIYDFIEDQGG [WASP-Y290, SHP2 substrate site peptide from a large-scale comparative study]”, the “Activity (Arb. u.)” value in the assay with SHP2 is recorded as 0.6 Arb. u.
For “SSLSNIDFYAQVSDITP [GHR-Y487, SHP2 substrate site peptide from a large-scale comparative study]”, the “Activity (Arb. u.)” value in the assay on SHP2 was 0.8 Arb. u.
In the case of “RVGEEEHVYSFPNKQKS [PAXI-Y118, SHP2 substrate site peptide from a large-scale comparative study]”, in the assay with SHP2, the “Activity (Arb. u.)” value is given as 0.8 Arb. u.
In the case of “GRKGSGDYMPM{pSer}PKS [0pIRS1, IRS1 Y632 peptide with pSer only, InsR kinase substrate]”, the “tyrosine phosphorylation by InsR kinase (in words)” value in assay [1] was “failed to indicate any major effect; also recorded: altered kinetics to a very limited degree”.
Take “LTCSPQPEYVNQPDVRP [ERBB2-Y1139, SHP2 substrate site peptide from a large-scale comparative study]”: in the assay on SHP2, the “Activity (Arb. u.)” value is on record as 1.2 Arb. u.
Take “HPPEPKSPGE{pTyr}VNIEFGS [p0Rev-IRS1, IRS1 Y896 peptide, phosphotyrosine-only, used for dephosphorylation assays]”: the “% nominal product” value in assay [3] (setting [4]) was 2.9%; in assay [3] (19 min, replicate 01) it was 4.9%; in assay [3] (19 min, replicate 02), 4.1%; in assay [3] (19 min, replicate 03) it was -0.2%; in assay [3] (setting [5]), 2.1%; in assay [3] (35 min, replicate 01), 2.3%. The “% nominal product” value in assay [3] (35 min, replicate 02) was 1.9%; in assay [3] (35 min, replicate 03), 2.2%; in assay [3] (51 min, replicate 01), 8.3%; in assay [3] (51 min, replicate 02) it was 2.0%; in assay [3] (51 min, replicate 03), 1.3%.
With “TPTAENPEYLGLDVPV- [ERBB2-Y1248, SHP2 substrate site peptide from a large-scale comparative study]”, the “Activity (Arb. u.)” value with SHP2 is reported as 0.6 Arb. u.
